One test addresses T1, CDK2 (Homo sapiens, UniProt P24941).
T1 construct: His; purchased Invitrogen PR4448B
Description: Binding assay (FRET, LanthaScreen Eu, Tracer236) for CDK2. The following applies: for IC50: read-out: CDK2 IC50 (enzyme binding assay). The protocol:
(§1) Inhibition activity of compound to CDK7 kinase was tested in a binding assay which was applied to the FRET (fluorescence resonance energy transfer) principle from the europium (Eu) donor fluorophore to the acceptor fluorophore on the kinase tracer. Test compounds were made to 1.125 mM of compound solution, and then this compound solution 4-fold serial diluted in 8 steps using an automated liquid handler (JANUS™, PerkinElmer). 80 nL/well of each diluted compound solution was added into the 384-well plate (Greiner, Cat #784075) first and 7.5 ul/well of working solution [5 nM of CDK7/CycH/MNAT1 (Invitrogen, Cat #PR6749B), 4 nM of Biotin anti-His Tag Antibody (Invitrogen, Cat #PV6090), and LanthaScreen® Eu-Streptavidin (Invitrogen, Cat #PV6025)] was added. After mixing the solution well, the same volume with the working solution of Tracer236 (Invitrogen, Cat #PV5592) was added into each well in the plate. The plate was incubated for 60 minutes at room temperature and then all the fluorescence were measured using Envision leader (Perkin Elmer, USA) [Laser as excitation light; […] as the first and the second emission filter]. Data was analysed using XL Fit software.
(§2) All of the synthesized compounds were screened in the above-mentioned assay procedure. To identify the inhibition activity of compounds for other CDKs including CDK1 (Invitrogen, Cat #PR4768C), CDK2 (Invitrogen, Cat #PR4448B) and CDK5 (Invitrogen, Cat #PR8543B) were tested using the same protocol under reasonable concentration of Tracer236 and kinases for each assay. The formula for the assay buffer summarized in below table.

A further test addresses T2, CDK5 (Homo sapiens, UniProt Q00535).
T2 construct: His; purchased Invitrogen PR8543B
As to the kind of experiment: Binding assay (FRET, LanthaScreen Eu, Tracer236) for CDK5. The following applies: for IC50: read-out: CDK5 IC50 (enzyme binding assay). The method, then:
as §1, §2
A general note: Time-resolved FRET reads energy transfer from a long-lived donor to a nearby acceptor.

In the next test the target is T3, CDK1 (Homo sapiens, UniProt P06493).
T3 construct: His; purchased Invitrogen PR4768C
Description: Binding assay (FRET, LanthaScreen Eu, Tracer236) for CDK1. The following applies: for IC50: read-out: CDK1 IC50 (enzyme binding assay). The protocol:
as §1, §2

A further test concerns the target T4, CDK7/CycH/MNAT1 (Homo sapiens, UniProt P50613).
T4 construct: His; purchased Invitrogen PR6749B
As to the kind of experiment: Binding assay (FRET, LanthaScreen Eu, Tracer236) for CDK7. The following applies: read-out: CDK7 IC50 (enzyme binding assay). The method, then: as §1, §2

Results on eleven compounds are retold here after patent US20240343732A1, “COMPOUNDS FOR DEGRADATION OF CYCLIN-DEPENDENT KINASE 7(CDK7)” (QURIENT CO., LTD., priority 2021, published 2024).

Each structure is given as a SMILES string.

T2 sequence (Q00535 whole entry): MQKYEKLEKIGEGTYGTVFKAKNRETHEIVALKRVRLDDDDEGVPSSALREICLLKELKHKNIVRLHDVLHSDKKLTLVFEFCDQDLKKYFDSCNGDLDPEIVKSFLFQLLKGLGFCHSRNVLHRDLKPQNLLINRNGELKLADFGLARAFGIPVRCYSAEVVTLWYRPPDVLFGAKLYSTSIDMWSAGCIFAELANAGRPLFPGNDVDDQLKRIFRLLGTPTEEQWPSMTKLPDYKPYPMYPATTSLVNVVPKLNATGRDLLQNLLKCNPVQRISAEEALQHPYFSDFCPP
T2 sequence (Q15078 99-307 partner limits assumed): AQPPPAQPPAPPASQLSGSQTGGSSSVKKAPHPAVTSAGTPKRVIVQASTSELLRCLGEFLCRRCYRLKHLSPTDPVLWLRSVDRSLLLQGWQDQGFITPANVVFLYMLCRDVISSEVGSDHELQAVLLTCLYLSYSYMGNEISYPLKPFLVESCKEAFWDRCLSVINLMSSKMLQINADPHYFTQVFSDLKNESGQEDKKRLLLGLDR
T4 sequence (P50613 whole entry): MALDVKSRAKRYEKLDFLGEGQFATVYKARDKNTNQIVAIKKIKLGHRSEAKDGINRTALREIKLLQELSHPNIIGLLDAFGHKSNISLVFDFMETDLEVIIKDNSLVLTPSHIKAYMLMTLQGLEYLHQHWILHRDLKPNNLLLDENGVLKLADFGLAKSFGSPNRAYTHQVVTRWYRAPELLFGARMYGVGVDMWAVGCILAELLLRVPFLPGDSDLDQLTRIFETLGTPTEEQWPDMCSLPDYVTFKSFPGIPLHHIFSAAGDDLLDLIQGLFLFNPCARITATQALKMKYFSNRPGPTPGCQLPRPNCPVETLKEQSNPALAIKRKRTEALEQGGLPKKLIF
T4 sequence (P51946 whole entry partner): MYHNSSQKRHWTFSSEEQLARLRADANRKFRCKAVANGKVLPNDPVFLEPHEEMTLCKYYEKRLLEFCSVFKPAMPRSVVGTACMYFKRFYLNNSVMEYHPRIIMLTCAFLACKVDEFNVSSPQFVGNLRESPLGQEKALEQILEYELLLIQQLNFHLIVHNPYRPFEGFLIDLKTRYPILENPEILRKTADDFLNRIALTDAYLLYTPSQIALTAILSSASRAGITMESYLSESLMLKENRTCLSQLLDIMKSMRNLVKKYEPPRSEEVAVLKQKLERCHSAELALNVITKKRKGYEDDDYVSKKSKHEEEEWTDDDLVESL
T4 sequence (P51948 whole entry partner): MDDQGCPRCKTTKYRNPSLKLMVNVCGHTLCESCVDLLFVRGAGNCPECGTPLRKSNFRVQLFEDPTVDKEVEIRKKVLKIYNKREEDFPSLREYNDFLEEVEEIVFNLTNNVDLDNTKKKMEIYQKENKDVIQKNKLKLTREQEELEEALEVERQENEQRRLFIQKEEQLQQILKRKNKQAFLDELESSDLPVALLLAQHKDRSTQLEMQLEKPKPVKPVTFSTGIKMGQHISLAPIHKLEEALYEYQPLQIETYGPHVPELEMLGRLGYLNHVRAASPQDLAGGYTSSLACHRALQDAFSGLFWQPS
T3 sequence (P06493 whole entry): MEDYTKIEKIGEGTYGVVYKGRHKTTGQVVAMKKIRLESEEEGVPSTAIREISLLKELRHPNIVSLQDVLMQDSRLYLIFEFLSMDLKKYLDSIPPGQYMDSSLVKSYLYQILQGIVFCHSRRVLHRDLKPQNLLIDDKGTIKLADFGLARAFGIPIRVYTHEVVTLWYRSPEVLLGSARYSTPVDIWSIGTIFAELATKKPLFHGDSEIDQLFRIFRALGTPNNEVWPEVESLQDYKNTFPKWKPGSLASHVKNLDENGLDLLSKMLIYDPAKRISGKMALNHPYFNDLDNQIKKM
T3 sequence (P14635 whole entry partner): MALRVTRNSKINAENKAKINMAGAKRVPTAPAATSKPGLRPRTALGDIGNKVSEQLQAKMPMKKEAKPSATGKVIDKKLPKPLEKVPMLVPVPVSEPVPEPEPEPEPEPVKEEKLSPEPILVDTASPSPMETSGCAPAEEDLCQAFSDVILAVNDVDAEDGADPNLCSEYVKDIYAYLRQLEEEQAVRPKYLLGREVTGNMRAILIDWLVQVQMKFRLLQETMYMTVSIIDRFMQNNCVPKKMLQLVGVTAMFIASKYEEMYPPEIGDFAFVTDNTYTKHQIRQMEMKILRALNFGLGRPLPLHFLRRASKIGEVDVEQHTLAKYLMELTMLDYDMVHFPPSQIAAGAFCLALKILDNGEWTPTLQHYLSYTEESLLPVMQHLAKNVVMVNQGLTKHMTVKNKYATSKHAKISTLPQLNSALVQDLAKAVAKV

Regarding `CC(C)c1cnn2c(NCc3ccccc3-c3nccc4cc(NC(=O)/C=C/CN(C)CCOCCNC(=O)CNc5cccc6c5C(=O)N(C5CCC(=O)NC5=O)C6=O)ccc34)nc(N3CCC(N)CC3)nc12` (centres unmarked) [Compound 1], the “CDK2/CDK7: Selectivity of CDK7 inhibition over CDK2 inhibition” value on CDK2 is “A (A indicates [fold] > 500)”. Moreover, the IC50 (commonly the midpoint of a concentration-inhibition curve) is more than 1000 nM on CDK2, more than 1000 nM on CDK5, more than 1000 nM at CDK1 and not above 100 nM on CDK7/CycH/MNAT1. In addition, on CDK5, the “CDK5/CDK7: Selectivity of CDK7 inhibition over CDK5 inhibition” value was “A (A indicates [fold] > 500)”. In addition, the “CDK1/CDK7: Selectivity of CDK7 inhibition over CDK1 inhibition” value on CDK1 was “A (A indicates [fold] > 500)”.
With `CC(C)c1cnn2c(NCc3ccccc3-c3nccc4cc(NC(=O)/C=C/CN(C)CCOCCOCCNC(=O)CNc5cccc6c5C(=O)N(C5CCC(=O)NC5=O)C6=O)ccc34)nc(N3CCC(N)CC3)nc12` (centres unmarked) [Compound 2], the “CDK2/CDK7: Selectivity of CDK7 inhibition over CDK2 inhibition” value at CDK2 was “A (A indicates [fold] > 500)”. Besides, the IC50 at CDK2 is more than 1000 nM; at CDK5, more than 1000 nM; on CDK1, more than 1000 nM; on CDK7/CycH/MNAT1, not above 100 nM. Moreover, the “CDK5/CDK7: Selectivity of CDK7 inhibition over CDK5 inhibition” value at CDK5 was “A (A indicates [fold] > 500)”. Further, the “CDK1/CDK7: Selectivity of CDK7 inhibition over CDK1 inhibition” value on CDK1 is “A (A indicates [fold] > 500)”.
In the case of `CC(C)c1cnn2c(NCc3ccccc3-c3nccc4cc(NC(=O)/C=C/CN(C)CCOCCOCCOCCNC(=O)CNc5cccc6c5C(=O)N(C5CCC(=O)NC5=O)C6=O)ccc34)nc(N3CCC(N)CC3)nc12` (centres unmarked) [Compound 3], at CDK2, the “CDK2/CDK7: Selectivity of CDK7 inhibition over CDK2 inhibition” value was “A (A indicates [fold] > 500)” and the IC50 was more than 1000 nM. For the same compound, at CDK5, the “CDK5/CDK7: Selectivity of CDK7 inhibition over CDK5 inhibition” value was “A (A indicates [fold] > 500)” and the IC50 is more than 1000 nM. Further, at CDK1, the “CDK1/CDK7: Selectivity of CDK7 inhibition over CDK1 inhibition” value was “A (A indicates [fold] > 500)” and the IC50 was more than 1000 nM. For the same compound, on CDK7/CycH/MNAT1, the IC50 was not above 100 nM.
As to `C=C(F)C(=O)Nc1ccc2c(-c3ccccc3CNc3nc(NC[C@H]4CCN(CCOCCOCCNC(=O)CNc5cccc6c5C(=O)N(C5CCC(=O)NC5=O)C6=O)C[C@@H]4O)nc4c(C(C)C)cnn34)nccc2c1` (some centres unmarked) [Compound 4], the “CDK2/CDK7: Selectivity of CDK7 inhibition over CDK2 inhibition” value on CDK2 is “C (C indicates [fold] ≤ 50)”. In addition, the IC50 on CDK2 was more than 1000 nM; at CDK5, more than 1000 nM; at CDK1, more than 1000 nM; on CDK7/CycH/MNAT1, 100 to 1000 nM. Besides, the “CDK5/CDK7: Selectivity of CDK7 inhibition over CDK5 inhibition” value on CDK5 was “B (B indicates 50 < [fold] ≤ 500)”. Further, the “CDK1/CDK7: Selectivity of CDK7 inhibition over CDK1 inhibition” value at CDK1 was “A (A indicates [fold] > 500)”.
In the case of `CC(C)c1cnn2c(NCc3ccccc3-c3nccc4cc(N)ccc34)nc(O[C@@H]3CCCN(CCOCCOCCNC(=O)CNc4cccc5c4C(=O)N(C4CCC(=O)NC4=O)C5=O)C3)nc12` (some centres unmarked) [Compound 5], the “CDK2/CDK7: Selectivity of CDK7 inhibition over CDK2 inhibition” value on CDK2 is “A (A indicates [fold] > 500)”. Also, the IC50 at CDK2 was more than 1000 nM; on CDK5, more than 1000 nM; on CDK1, more than 1000 nM; at CDK7/CycH/MNAT1, not above 100 nM. In addition, the “CDK5/CDK7: Selectivity of CDK7 inhibition over CDK5 inhibition” value on CDK5 was “A (A indicates [fold] > 500)”. Moreover, on CDK1, the “CDK1/CDK7: Selectivity of CDK7 inhibition over CDK1 inhibition” value is “A (A indicates [fold] > 500)”.
On to `CC(C)c1cnn2c(NCc3ccccc3-c3nccc4cc(N)ccc34)nc(O[C@@H]3CCCN(CCOCCOCCOCCNC(=O)CNc4cccc5c4C(=O)N(C4CCC(=O)NC4=O)C5=O)C3)nc12` (some centres unmarked) [Compound 6], for which the “CDK2/CDK7: Selectivity of CDK7 inhibition over CDK2 inhibition” value on CDK2 is “A (A indicates [fold] > 500)”. Further, the IC50 on CDK2 was more than 1000 nM; on CDK5, more than 1000 nM; at CDK1, more than 1000 nM; at CDK7/CycH/MNAT1 it was not above 100 nM. Moreover, on CDK5, the “CDK5/CDK7: Selectivity of CDK7 inhibition over CDK5 inhibition” value was “A (A indicates [fold] > 500)”. For the same compound, the “CDK1/CDK7: Selectivity of CDK7 inhibition over CDK1 inhibition” value on CDK1 is “A (A indicates [fold] > 500)”.
For `CC(C)c1cnn2c(NCc3ccccc3-c3nccc4cc(NCCOCCOCCOCCNC(=O)CNc5cccc6c5C(=O)N(C5CCC(=O)NC5=O)C6=O)ccc34)nc(O[C@@H]3CCCNC3)nc12` (some centres unmarked) [Compound 8], on CDK2, the “CDK2/CDK7: Selectivity of CDK7 inhibition over CDK2 inhibition” value is “A (A indicates [fold] > 500)” and the concentration for half-maximal inhibition (IC50) was more than 1000 nM. For the same compound, on CDK5, the “CDK5/CDK7: Selectivity of CDK7 inhibition over CDK5 inhibition” value was “B (B indicates 50 < [fold] ≤ 500)” and the IC50 is more than 1000 nM. Besides, at CDK1, the “CDK1/CDK7: Selectivity of CDK7 inhibition over CDK1 inhibition” value is “A (A indicates [fold] > 500)” and the IC50 is more than 1000 nM. Also, at CDK7/CycH/MNAT1, the IC50 is not above 100 nM.
On to `CN[C@@H](C)C(=O)N[C@H](C(=O)N1CCC[C@H]1c1nc(C(=O)c2cccc(OCCOCCOCCNc3ccc4c(-c5ccccc5CNc5nc(O[C@@H]6CCCNC6)nc6c(C(C)C)cnn56)nccc4c3)c2)cs1)C1CCCCC1` [Compound 18], for which, at CDK2, the “CDK2/CDK7: Selectivity of CDK7 inhibition over CDK2 inhibition” value is “A (A indicates [fold] > 500)” and the IC50 is more than 1000 nM. Besides, at CDK5, the “CDK5/CDK7: Selectivity of CDK7 inhibition over CDK5 inhibition” value is “A (A indicates [fold] > 500)” and the IC50 is more than 1000 nM. At CDK1, the “CDK1/CDK7: Selectivity of CDK7 inhibition over CDK1 inhibition” value was “A (A indicates [fold] > 500)” and the IC50 was more than 1000 nM. In addition, at CDK7/CycH/MNAT1, the IC50 was not above 100 nM.
Regarding `Cc1ncsc1-c1ccc(CNC(=O)[C@@H]2C[C@@H](O)CN2C(=O)[C@@H](NC(=O)C2(F)CC2)C(C)(C)C)c(OCCOCCOCCOCCOCCOCCNc2ccc3c(-c4ccccc4CNc4nc(O[C@@H]5CCCNC5)nc5c(C(C)C)cnn45)nccc3c2)c1` [Compound 23], on CDK2, the “CDK2/CDK7: Selectivity of CDK7 inhibition over CDK2 inhibition” value was “A (A indicates [fold] > 500)” and the IC50 is more than 1000 nM. Further, on CDK5, the “CDK5/CDK7: Selectivity of CDK7 inhibition over CDK5 inhibition” value was “A (A indicates [fold] > 500)” and the IC50 is more than 1000 nM. Further, on CDK1, the “CDK1/CDK7: Selectivity of CDK7 inhibition over CDK1 inhibition” value is “A (A indicates [fold] > 500)” and the IC50 was more than 1000 nM. Besides, at CDK7/CycH/MNAT1, the IC50 was not above 100 nM.
For the compound `Cc1ncsc1-c1ccc(CNC(=O)[C@@H]2C[C@@H](O)CN2C(=O)[C@@H](NC(=O)C2(F)CC2)C(C)(C)C)c(OCCN2CCC(N3CCC(CNc4ccc5c(-c6ccccc6CNc6nc(N[C@@H]7CCCNC7)nc7c(C(C)C)cnn67)nccc5c4)CC3)CC2)c1` [Compound 29], the “CDK2/CDK7: Selectivity of CDK7 inhibition over CDK2 inhibition” value on CDK2 was “B (B indicates 50 < [fold] ≤ 500)”. Besides, the IC50 at CDK2 was more than 1000 nM; on CDK5, more than 1000 nM; on CDK1, more than 1000 nM; at CDK7/CycH/MNAT1, not above 100 nM. Further, the “CDK5/CDK7: Selectivity of CDK7 inhibition over CDK5 inhibition” value on CDK5 is “B (B indicates 50 < [fold] ≤ 500)”. Also, the “CDK1/CDK7: Selectivity of CDK7 inhibition over CDK1 inhibition” value on CDK1 is “B (B indicates 50 < [fold] ≤ 500)”.
Turning to `CC(C)c1cnn2c(NCc3ccccc3-c3nccc4cc(N5CCN(CC6CCN(c7cc8c(cc7F)C(=O)N(C7CCC(=O)NC7=O)C8=O)CC6)CC5)ccc34)nc(O[C@@H]3CCCNC3)nc12` (some centres unmarked) [Compound 35], the “CDK2/CDK7: Selectivity of CDK7 inhibition over CDK2 inhibition” value on CDK2 was “B (B indicates 50 < [fold] ≤ 500)”. Further, the IC50 on CDK2 was more than 1000 nM; on CDK5, more than 1000 nM; on CDK1, more than 1000 nM; at CDK7/CycH/MNAT1, 100 to 1000 nM. The “CDK5/CDK7: Selectivity of CDK7 inhibition over CDK5 inhibition” value on CDK5 was “B (B indicates 50 < [fold] ≤ 500)”. Moreover, the “CDK1/CDK7: Selectivity of CDK7 inhibition over CDK1 inhibition” value at CDK1 was “B (B indicates 50 < [fold] ≤ 500)”.
